Assay results reported in patent publication US8697874B2, “Heterocyclic compound and use thereof” (Takeda Pharmaceutical Company Limited, priority 2008, dated 2014).
Blank lines part the entries; values can stand above or below the compound they belong to.

Assays:
[1] = tested on: MEK1/2 phosphorylation in human colorectal cancer cell HT-29; test: Colorectal cancer cell HT-29 intracellular MEK phosphorylation inhibitory activity in vitro; assay type: cell-based; conditions: HT-29 cells; for IC50: 2 hrs treatment, phosphorylated MEK1/2 by Western blot; for inhibition at 0.5 µM: MEK1/2 protein phosphorylation, compound 0.5 μM, 2 hrs, read-out: inhibitory rate (%) at 0.5 μM
Method: Colorectal Cancer Cell HT-29 Intracellular MEK Phosphorylation Inhibitory Activity In Vitro
500 μL of a cell suspension of human colorectal cancer cell HT-29 (purchased from American Type Culture Collection (ATCC)) was plated in a 48-well plate (100,000 cells/well), and the cells were cultured overnight at 37° C. in the presence of 5% CO2, treated with a test compound (250 μL/well) diluted in 3-fold dilution series and cultured for 2 hrs. After 2 hrs, the culture medium containing the test compound was removed, and the cells were lysed with SDS sample buffer (100 μL/well) and heated at 95° C. for 5 min. Thereafter, the cells lysed with SDS sample buffer were applied to SDS-PAGE, and the protein was transferred onto Sequi-Blot™ PVDF Membrane (Bio-Rad) by the Western blot method. The PDVF membrane was blocked with a Block-Ace solution (Snow Brand Milk Products Co., Ltd) dissolved in phosphate buffered saline (MP Biochemicals) to 5% W/V, and reacted overnight with anti-phosphorylated MEK1/2 (Ser217/221) (Cell signaling) diluted 1000-fold with phosphate buffered saline containing 0.4% Block-Ace. The membrane was washed with phosphate buffered saline containing 0.1% Tween 20 (Wako Pure Chemical Industries, Ltd.), and reacted at room temperature for 1 hr with HRP labeled rabbit IgG polyclonal antibody (Cell signaling) diluted 1000-fold with phosphate buffered saline containing 0.4% Block-Ace. The membrane was washed in the same manner as above, chemical luminescence of a phosphorylated MEK1/2 protein labeled with the antibody, which was caused by ECL-plus Detection Reagent (Amersham bioscience), was detected by Luminescent Image Analyzer LAS-1000 (FUJIFILM Corporation). Taking the luminescence of the control group free of the test compound as 100%, the concentration (IC50 value) of the compound necessary for inhibiting the residual luminescence to 50% of the control group was calculated. The results are shown in Table 3-A. In addition, MEK1/2 protein phosphorylation inhibitory rate (%) of the test compound at compound concentration 0.5 μM was calculated by the following formula. The results are shown in Table 3-B. Inhibitory rate (%)=(1−(luminescence of test compound−blank)÷(luminescence of control group−blank))×100

[2] = molecular target: T1, BRAF (V600E) kinase (Homo sapiens, UniProt P15056, V600E); test: Determination of BRAF (V600E) kinase inhibitory activity; assay type: biochemical; conditions: compound 1.0 μm; substrate GSTP1-MEK1 (K96R), [γ-32P]ATP
T1 construct: area encoding the BRAF kinase domain region, so that the protein contains an N-terminal Flag; made in house; host or cells: SF-21 insect cells infected with recombinant baculovirus BAC-V600E
Method: Determination of BRAF (V600E) Kinase Inhibitory Activity
A test compound (2.5 μL) dissolved in dimethyl sulfoxide (DMSO) was added to 37.5 μL of a reaction solution (25 mM HEPES (pH 7.5), 10 mM magnesium acetate, 1 mM dithiothreitol) containing 30 ng of BRAF (V600E) enzyme and 250 ng of recombinant protein GSTP1-MEK1 (K96R) prepared using FreeStyle 293 expression system (Invitrogen), and the mixture was incubated at room temperature for 10 min. 10 μL of ATP solution (2.5 μM ATP, 0.1 μCi [γ-^32P]ATP) was added to the obtained mixture, and the mixture was reacted at room temperature for 20 min. The reaction was quenched by adding 50 μL of ice-cooled 20% trichloroacetic acid (Wako Pure Chemical Industries, Ltd.) to the reaction solution. The reaction solution was allowed to stand at 4° C. for 30 min., and the acid-precipitable fraction was transferred to GF/C filter plate (Millipore Corporation) using cell harvester (PerkinElmer). The plate was dried at 45° C. for 60 min., and 40 μL of MicroScinti 0 (PerkinElmer) was added thereto. The radioactivity was measured using TopCount (PerkinElmer). The kinase inhibitory rate (%) of the test compound was calculated by the following formula: Inhibitory rate (%)=(1−(count of test compound−blank)÷(control−blank))×100
The count of the solution reacted without addition of the compound was used as a “control”, and the count of the solution without the compound and enzyme was used as a “blank”.

[3] = tested on: human colorectal cancer cell HT-29; test: Colorectal cancer cell HT-29 growth suppressive activity in vitro; assay type: cell-based; conditions: 72 h, HT-29 cells, SRB staining; for IC50: 3 days culture; for inhibition at 5 µM: cell proliferation, compound 5.0 μM, 3 days, read-out: inhibitory rate (%) at 5.0 μM
Method: Colorectal Cancer Cell HT-29 Growth Suppressive Activity in Vitro
100 μL of a cell suspension (3,000 cells/well) of human colorectal cancer cell HT-29 (purchased from ATCC) was plated in a 96-well plate, and the cells were cultured at 37° C. in a 5% CO2 gas incubator. The next day, 100 μL of each test compound solution diluted in 2-fold serial dilution, diluted from maximum concentration 20 μM, was added, and the cells were cultured for 3 days. As for Example 44, 100 μl of each test compound solution (4-fold serially diluted, diluted from maximum concentration 20 μM) was added, and the cells were cultured for 3 days. The culture medium containing the test compound was removed, and the cells were washed with phosphate buffered saline (PBS). A 50% trichloroacetic acid solution was added to the final concentration of 10% (v/v), and the mixture was stood overnight at 4° C., whereby the cells were fixed to the plate. Then, a dye SRB 0.4% (w/v) solution (dissolved in 1% acetic acid) was added at 50 μl/well, whereby the cell protein was fixed and stained (Skehan et al., Journal Of National Cancer Institute, vol. 82, pp. 1107-1112, 1990). The cells were washed 3 times with 1% acetic acid solution (200 μL/well), and 100 μL of an extract (10 mM Tris buffer) was added to extract the dye. The absorbance at an absorption wavelength 550 nm was measured, and cell amount was measured as a protein amount. Taking the protein amount of the control group free of the test compound solution as 100%, the proportion of the residual protein amount of each treatment group was determined and the concentration of the compound necessary for suppressing the residual cell amount to 50% of the control (IC50 value) was calculated. The results are shown in Table 4-A. In addition, cell proliferation inhibitory rate (%) of the test compound at compound concentration 5.0 μM was calculated by the following formula. The results are shown in Table 4-B. Inhibitory rate (%)=(1−(absorbance of test compound−blank)÷(absorbance of control group−blank))×100

T1 sequence (P15056 457-717 V600E limits assumed): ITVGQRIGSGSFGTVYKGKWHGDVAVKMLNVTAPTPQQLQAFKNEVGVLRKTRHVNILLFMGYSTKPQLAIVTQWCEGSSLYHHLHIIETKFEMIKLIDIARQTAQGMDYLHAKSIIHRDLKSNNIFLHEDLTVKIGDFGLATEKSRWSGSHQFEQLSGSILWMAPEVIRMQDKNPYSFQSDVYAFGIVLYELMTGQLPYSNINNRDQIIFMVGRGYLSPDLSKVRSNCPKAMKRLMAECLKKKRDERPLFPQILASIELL

SMILES: CN(c1cccc(NC(=O)Nc2ccc(OC(F)(F)F)cc2)c1)c1ccc2nc(NC(=O)C3CC3)sc2n1 [Example 9, N-(5-{methyl[3-({[4-(trifluoromethoxy)phenyl]carbamoyl}amino)phenyl]amino}[1,3]thiazolo[5,4-b]pyridin-2-yl)cyclopropanecarboxamide]
IC50 [3]: < 500 nM
inhibition at 5 µM [3]: 100%

SMILES: Cc1ccc(NC(=O)Cc2ccsc2)cc1Oc1ccc2nc(NC(=O)C3CC3)sc2n1 [Example 44, N-(5-{2-methyl-5-[(thiophen-3-ylacetyl)amino]-phenoxy} [1,3]thia-zolo[5,4-b]pyridin-2-yl)cyclo-propanecarboxamide]
IC50 [3]: < 500 nM
inhibition at 5 µM [3]: 98%

SMILES: CN(c1ccc(F)c(NC(=O)Nc2ccc(C(C)(C)C)cc2)c1)c1ccc2nc(NC(=O)C3CC3)sc2n1 [Example 3, N-{5-[(3-{[(4-tert-butylphenyl)carbamoyl]amino-}-4-fluorophenyl)(methyl)amino][1,3]thiazolo[5,4-b]pyridin-2-yl}cyclopropanecarboxamide]
IC50 [1]: < 300 nM
inhibition at 0.5 µM [1]: 94%

SMILES: O=C(Cc1cccc(C(F)(F)F)c1)Nc1cc(Oc2ccc3nc(NC(=O)C4CC4)sc3n2)ccc1F [Example 22, N-{5-[4-fluoro-3-({[3-(trifluoromethyl)phenyl]acetyl}amino)phenoxy][1,3]thiazolo[5,4-b]pyridin-2-yl}cyclopropanecarboxamide]
inhibition at 0.5 µM [1]: 88%

More lines, main results first:

IC50 [1]: < 300 nM
SMILES: O=C(Nc1ccc(Cl)c(C(F)(F)F)c1)Nc1cc(Nc2ccc3nc(NC(=O)C4CC4)sc3n2)ccc1F [Example 13, N-(5-{[3-({[4-chloro-3-(trifluoromethyl)phenyl]carbamoyl}amino)-4-fluorophenyl]amino}[1,3]thiazolo[5,4-b]pyridin-2-yl)cyclopropanecarboxamide]
inhibition at 0.5 µM [1]: 98%

inhibitory rate (%) at 1.0 μm [2]: 100%
SMILES: O=C(Cc1ccccc1C(F)(F)F)Nc1cc(Oc2ccc3nc(NC(=O)C4CC4)sc3n2)ccc1F [Example 19, N-{5-[4-fluoro-3-({[2-(trifluoromethyl)phenyl]acetyl}amino)phenoxy][1,3]thiazolo[5,4-b]pyridin-2-yl}cyclopropanecarboxamide]

IC50 [3]: < 500 nM
SMILES: O=C(Nc1ccc(C(F)(F)F)nc1)Nc1cc(Oc2ccc3nc(NC(=O)C4CC4)sc3n2)ccc1F [Example 29, N-{5-[4-fluoro-3-({[6-(trifluoromethyl)pyridin-3-yl]carbamoyl}amino)phenoxy][1,3]thiazolo[5,4-b]pyridin-2-yl}cyclopropanecarboxamide]
inhibition at 5 µM [3]: 74%

inhibitory rate (%) at 1.0 μm [2]: 98%
SMILES: O=C(Cc1ccc(C(F)(F)F)cc1)Nc1cc(Oc2ccc3nc(NC(=O)C4CC4)sc3n2)ccc1F [Example 21, N-{5-[4-fluoro-3-[{(4-(trifluoromethyl)phenyl]acetyl}amino)phenoxy][1,3]thiazolo[5,4-b]pyridin-2-yl}cyclopropanecarboxamide]

inhibitory rate (%) at 1.0 μm [2]: 99%
SMILES: CN(c1cccc(NC(=O)Nc2ccc(Cl)c(C(F)(F)F)c2)c1)c1ccc2nc(NC(=O)C3CC3)sc2n1 [Example 11, N-(5-{[3-({[4-chloro-3-(trifluoromethyl)phenyl]carbamoyl}amino)phenyl](methyl)amino}[1,3]thiazolo[5,4-b]pyridin-2-yl)cyclopropanecarboxamide]

inhibitory rate (%) at 1.0 μm [2]: 98%
SMILES: CN(c1ccc(F)c(NC(=O)Nc2ccc(C(F)(F)F)cc2)c1)c1ccc2nc(NC(=O)C3CC3)sc2n1 [Example 1, N-(5-{[4-fluoro-3-({[4-(trifluoromethyl)phenyl]carbamoyl}amino)phenyl](methyl)amino}[1,3]thiazolo[5,4-b]pyridin-2-yl)cyclopropanecarboxamide]

IC50 [1]: < 300 nM
SMILES: O=C(Nc1cccc(C(F)(F)F)c1)Nc1cc(Oc2ccc3nc(NC(=O)C4CC4)sc3n2)ccc1F [Example 23, N-{5-[4-fluoro-3-({[3-(trifluoromethyl)phenyl]carbamoyl}amino)phenoxy][1,3]thiazolo[5,4-b]pyridin-2-yl}cyclopropanecarboxamide]
inhibition at 0.5 µM [1]: 88%
